Results on 20 substances are retold here after the OligoGym collection.

Oligonucleotides are given in HELM: sugar(base)linkage, 5' to 3'; d 2'-deoxyribose, r ribose, m 2'-O-methylribose, p phosphate. ss, as = sense and antisense strand
Further: test concentration or dose not given here.

The target in the data set is Cacnb1 (rat). As to the kind of experiment: reporter assay of Huesken 2005. Conditions: siRNA.
On to “RNA1{r(A)p.r(A)p.r(C)p.r(C)p.r(A)p.r(A)p.r(U)p.r(U)p.r(G)p.r(G)p.r(A)p.r(A)p.r(G)p.r(A)p.r(U)p.r(G)p.r(C)p.r(C)p.r(U)p.d(T)p.d(T)}|RNA2{r(A)p.r(G)p.r(G)p.r(C)p.r(A)p.r(U)p.r(C)p.r(U)p.r(U)p.r(C)p.r(C)p.r(A)p.r(A)p.r(U)p.r(U)p.r(G)p.r(G)p.r(U)p.r(U)p.d(C)p.d(T)}$$$RNA1{StrandType:ss}|RNA2{StrandType:as}$”, for which the normalised inhibition (eCFP-eYFP dual reporter) turned out to be 50%.

“RNA1{r(G)p.r(C)p.r(C)p.r(C)p.r(A)p.r(C)p.r(A)p.r(G)p.r(G)p.r(G)p.r(C)p.r(A)p.r(A)p.r(A)p.r(U)p.r(A)p.r(C)p.r(A)p.r(G)p.d(T)p.d(T)}|RNA2{r(C)p.r(U)p.r(G)p.r(U)p.r(A)p.r(U)p.r(U)p.r(U)p.r(G)p.r(C)p.r(C)p.r(C)p.r(U)p.r(G)p.r(U)p.r(G)p.r(G)p.r(G)p.r(C)p.d(T)p.d(G)}$$$RNA1{StrandType:ss}|RNA2{StrandType:as}$” yielded a normalised inhibition (eCFP-eYFP dual reporter) of 75.8%. As for “RNA1{r(C)p.r(G)p.r(U)p.r(C)p.r(A)p.r(G)p.r(A)p.r(C)p.r(U)p.r(C)p.r(C)p.r(G)p.r(A)p.r(C)p.r(G)p.r(U)p.r(G)p.r(U)p.r(C)p.d(T)p.d(T)}|RNA2{r(G)p.r(A)p.r(C)p.r(A)p.r(C)p.r(G)p.r(U)p.r(C)p.r(G)p.r(G)p.r(A)p.r(G)p.r(U)p.r(C)p.r(U)p.r(G)p.r(A)p.r(C)p.r(G)p.d(G)p.d(C)}$$$RNA1{StrandType:ss}|RNA2{StrandType:as}$”, the normalised inhibition (eCFP-eYFP dual reporter) was found to be 77%.

For “RNA1{r(A)p.r(G)p.r(C)p.r(C)p.r(G)p.r(G)p.r(C)p.r(C)p.r(G)p.r(U)p.r(C)p.r(A)p.r(G)p.r(A)p.r(C)p.r(U)p.r(C)p.r(C)p.r(G)p.d(T)p.d(T)}|RNA2{r(C)p.r(G)p.r(G)p.r(A)p.r(G)p.r(U)p.r(C)p.r(U)p.r(G)p.r(A)p.r(C)p.r(G)p.r(G)p.r(C)p.r(C)p.r(G)p.r(G)p.r(C)p.r(U)p.d(C)p.d(G)}$$$RNA1{StrandType:ss}|RNA2{StrandType:as}$”, the normalised inhibition (eCFP-eYFP dual reporter) came out at 44.2%. The same measure for “RNA1{r(A)p.r(C)p.r(C)p.r(C)p.r(C)p.r(A)p.r(G)p.r(C)p.r(A)p.r(A)p.r(A)p.r(C)p.r(A)p.r(C)p.r(A)p.r(U)p.r(U)p.r(A)p.r(U)p.d(T)p.d(T)}|RNA2{r(A)p.r(U)p.r(A)p.r(A)p.r(U)p.r(G)p.r(U)p.r(G)p.r(U)p.r(U)p.r(U)p.r(G)p.r(C)p.r(U)p.r(G)p.r(G)p.r(G)p.r(G)p.r(U)p.d(T)p.d(G)}$$$RNA1{StrandType:ss}|RNA2{StrandType:as}$”: 63.4%; for “RNA1{r(U)p.r(A)p.r(C)p.r(A)p.r(C)p.r(G)p.r(G)p.r(A)p.r(G)p.r(C)p.r(C)p.r(A)p.r(G)p.r(G)p.r(A)p.r(G)p.r(A)p.r(C)p.r(U)p.d(T)p.d(T)}|RNA2{r(A)p.r(G)p.r(U)p.r(C)p.r(U)p.r(C)p.r(C)p.r(U)p.r(G)p.r(G)p.r(C)p.r(U)p.r(C)p.r(C)p.r(G)p.r(U)p.r(G)p.r(U)p.r(A)p.d(G)p.d(A)}$$$RNA1{StrandType:ss}|RNA2{StrandType:as}$”: 54.9%; for “RNA1{r(C)p.r(C)p.r(A)p.r(A)p.r(G)p.r(G)p.r(A)p.r(C)p.r(U)p.r(U)p.r(C)p.r(C)p.r(U)p.r(G)p.r(C)p.r(A)p.r(C)p.r(A)p.r(U)p.d(T)p.d(T)}|RNA2{r(A)p.r(U)p.r(G)p.r(U)p.r(G)p.r(C)p.r(A)p.r(G)p.r(G)p.r(A)p.r(A)p.r(G)p.r(U)p.r(C)p.r(C)p.r(U)p.r(U)p.r(G)p.r(G)p.d(G)p.d(C)}$$$RNA1{StrandType:ss}|RNA2{StrandType:as}$”: 63.2%. The same measure for “RNA1{r(C)p.r(A)p.r(G)p.r(G)p.r(A)p.r(G)p.r(A)p.r(U)p.r(G)p.r(A)p.r(G)p.r(G)p.r(U)p.r(G)p.r(C)p.r(C)p.r(A)p.r(G)p.r(U)p.d(T)p.d(T)}|RNA2{r(A)p.r(C)p.r(U)p.r(G)p.r(G)p.r(C)p.r(A)p.r(C)p.r(C)p.r(U)p.r(C)p.r(A)p.r(U)p.r(C)p.r(U)p.r(C)p.r(C)p.r(U)p.r(G)p.d(G)p.d(A)}$$$RNA1{StrandType:ss}|RNA2{StrandType:as}$”: 83.4%; for “RNA1{r(G)p.r(G)p.r(C)p.r(U)p.r(C)p.r(C)p.r(U)p.r(G)p.r(G)p.r(G)p.r(A)p.r(A)p.r(G)p.r(A)p.r(G)p.r(G)p.r(A)p.r(G)p.r(G)p.d(T)p.d(T)}|RNA2{r(C)p.r(C)p.r(U)p.r(C)p.r(C)p.r(U)p.r(C)p.r(U)p.r(U)p.r(C)p.r(C)p.r(C)p.r(A)p.r(G)p.r(G)p.r(A)p.r(G)p.r(C)p.r(C)p.d(C)p.d(T)}$$$RNA1{StrandType:ss}|RNA2{StrandType:as}$”: 46.7%; for “RNA1{r(A)p.r(A)p.r(G)p.r(G)p.r(G)p.r(C)p.r(G)p.r(G)p.r(U)p.r(U)p.r(C)p.r(A)p.r(A)p.r(A)p.r(A)p.r(G)p.r(G)p.r(U)p.r(C)p.d(T)p.d(T)}|RNA2{r(G)p.r(A)p.r(C)p.r(C)p.r(U)p.r(U)p.r(U)p.r(U)p.r(G)p.r(A)p.r(A)p.r(C)p.r(C)p.r(G)p.r(C)p.r(C)p.r(C)p.r(U)p.r(U)p.d(T)p.d(C)}$$$RNA1{StrandType:ss}|RNA2{StrandType:as}$”: 57.7%. “RNA1{r(U)p.r(C)p.r(G)p.r(G)p.r(G)p.r(A)p.r(G)p.r(G)p.r(C)p.r(U)p.r(G)p.r(G)p.r(U)p.r(G)p.r(A)p.r(A)p.r(G)p.r(G)p.r(A)p.d(T)p.d(T)}|RNA2{r(U)p.r(C)p.r(C)p.r(U)p.r(U)p.r(C)p.r(A)p.r(C)p.r(C)p.r(A)p.r(G)p.r(C)p.r(C)p.r(U)p.r(C)p.r(C)p.r(C)p.r(G)p.r(A)p.d(T)p.d(C)}$$$RNA1{StrandType:ss}|RNA2{StrandType:as}$” had a normalised inhibition (eCFP-eYFP dual reporter) of 73.7%. “RNA1{r(G)p.r(U)p.r(G)p.r(C)p.r(C)p.r(A)p.r(A)p.r(A)p.r(C)p.r(A)p.r(G)p.r(A)p.r(A)p.r(G)p.r(C)p.r(A)p.r(G)p.r(A)p.r(A)p.d(T)p.d(T)}|RNA2{r(U)p.r(U)p.r(C)p.r(U)p.r(G)p.r(C)p.r(U)p.r(U)p.r(C)p.r(U)p.r(G)p.r(U)p.r(U)p.r(U)p.r(G)p.r(G)p.r(C)p.r(A)p.r(C)p.d(T)p.d(G)}$$$RNA1{StrandType:ss}|RNA2{StrandType:as}$” showed a normalised inhibition (eCFP-eYFP dual reporter) of 82.1%. The same measure for “RNA1{r(C)p.r(C)p.r(U)p.r(G)p.r(G)p.r(A)p.r(C)p.r(G)p.r(A)p.r(G)p.r(A)p.r(A)p.r(C)p.r(C)p.r(A)p.r(A)p.r(U)p.r(U)p.r(G)p.d(T)p.d(T)}|RNA2{r(C)p.r(A)p.r(A)p.r(U)p.r(U)p.r(G)p.r(G)p.r(U)p.r(U)p.r(C)p.r(U)p.r(C)p.r(G)p.r(U)p.r(C)p.r(C)p.r(A)p.r(G)p.r(G)p.d(A)p.d(T)}$$$RNA1{StrandType:ss}|RNA2{StrandType:as}$”: 80.2%; for “RNA1{r(C)p.r(C)p.r(U)p.r(U)p.r(A)p.r(G)p.r(C)p.r(C)p.r(C)p.r(A)p.r(G)p.r(C)p.r(U)p.r(C)p.r(G)p.r(A)p.r(G)p.r(A)p.r(A)p.d(T)p.d(T)}|RNA2{r(U)p.r(U)p.r(C)p.r(U)p.r(C)p.r(G)p.r(A)p.r(G)p.r(C)p.r(U)p.r(G)p.r(G)p.r(G)p.r(C)p.r(U)p.r(A)p.r(A)p.r(G)p.r(G)p.d(C)p.d(C)}$$$RNA1{StrandType:ss}|RNA2{StrandType:as}$”: 76.8%; for “RNA1{r(A)p.r(C)p.r(A)p.r(C)p.r(G)p.r(G)p.r(A)p.r(G)p.r(C)p.r(C)p.r(A)p.r(G)p.r(G)p.r(A)p.r(G)p.r(A)p.r(C)p.r(U)p.r(C)p.d(T)p.d(T)}|RNA2{r(G)p.r(A)p.r(G)p.r(U)p.r(C)p.r(U)p.r(C)p.r(C)p.r(U)p.r(G)p.r(G)p.r(C)p.r(U)p.r(C)p.r(C)p.r(G)p.r(U)p.r(G)p.r(U)p.d(A)p.d(G)}$$$RNA1{StrandType:ss}|RNA2{StrandType:as}$”: 48.8%.

“RNA1{r(G)p.r(A)p.r(A)p.r(C)p.r(C)p.r(G)p.r(C)p.r(A)p.r(C)p.r(C)p.r(A)p.r(U)p.r(G)p.r(G)p.r(C)p.r(U)p.r(A)p.r(C)p.r(C)p.d(T)p.d(T)}|RNA2{r(G)p.r(G)p.r(U)p.r(A)p.r(G)p.r(C)p.r(C)p.r(A)p.r(U)p.r(G)p.r(G)p.r(U)p.r(G)p.r(C)p.r(G)p.r(G)p.r(U)p.r(U)p.r(C)p.d(A)p.d(G)}$$$RNA1{StrandType:ss}|RNA2{StrandType:as}$” came in with a normalised inhibition (eCFP-eYFP dual reporter) of 49%. For “RNA1{r(C)p.r(G)p.r(A)p.r(G)p.r(C)p.r(G)p.r(C)p.r(U)p.r(C)p.r(C)p.r(A)p.r(A)p.r(C)p.r(A)p.r(C)p.r(U)p.r(C)p.r(G)p.r(C)p.d(T)p.d(T)}|RNA2{r(G)p.r(C)p.r(G)p.r(A)p.r(G)p.r(U)p.r(G)p.r(U)p.r(U)p.r(G)p.r(G)p.r(A)p.r(G)p.r(C)p.r(G)p.r(C)p.r(U)p.r(C)p.r(G)p.d(A)p.d(T)}$$$RNA1{StrandType:ss}|RNA2{StrandType:as}$”, the normalised inhibition (eCFP-eYFP dual reporter) stood at 15.2%. Next, “RNA1{r(A)p.r(A)p.r(U)p.r(G)p.r(U)p.r(U)p.r(G)p.r(G)p.r(C)p.r(U)p.r(A)p.r(C)p.r(A)p.r(A)p.r(U)p.r(C)p.r(C)p.r(G)p.r(U)p.d(T)p.d(T)}|RNA2{r(A)p.r(C)p.r(G)p.r(G)p.r(A)p.r(U)p.r(U)p.r(G)p.r(U)p.r(A)p.r(G)p.r(C)p.r(C)p.r(A)p.r(A)p.r(C)p.r(A)p.r(U)p.r(U)p.d(T)p.d(G)}$$$RNA1{StrandType:ss}|RNA2{StrandType:as}$”: 90.9%; “RNA1{r(C)p.r(G)p.r(A)p.r(A)p.r(A)p.r(C)p.r(U)p.r(C)p.r(U)p.r(G)p.r(U)p.r(C)p.r(U)p.r(A)p.r(C)p.r(A)p.r(C)p.r(G)p.r(G)p.d(T)p.d(T)}|RNA2{r(C)p.r(C)p.r(G)p.r(U)p.r(G)p.r(U)p.r(A)p.r(G)p.r(A)p.r(C)p.r(A)p.r(G)p.r(A)p.r(G)p.r(U)p.r(U)p.r(U)p.r(C)p.r(G)p.d(G)p.d(C)}$$$RNA1{StrandType:ss}|RNA2{StrandType:as}$”: 44%; “RNA1{r(G)p.r(A)p.r(G)p.r(A)p.r(U)p.r(C)p.r(C)p.r(C)p.r(U)p.r(A)p.r(U)p.r(G)p.r(G)p.r(A)p.r(G)p.r(G)p.r(U)p.r(C)p.r(U)p.d(T)p.d(T)}|RNA2{r(A)p.r(G)p.r(A)p.r(C)p.r(C)p.r(U)p.r(C)p.r(C)p.r(A)p.r(U)p.r(A)p.r(G)p.r(G)p.r(G)p.r(A)p.r(U)p.r(C)p.r(U)p.r(C)p.d(T)p.d(T)}$$$RNA1{StrandType:ss}|RNA2{StrandType:as}$”: 71.5%.
